Results: US11028072B2, “2,4-diamino-6-ethylpyrimidine derivatives with antimalarial activities against Plasmodium falciparum” (National Science and Technology Development Agency, priority 2015, dated 2021)
Counter-ions that a name gives are not always drawn.

test system: not given; assay: not given; conditions: not given

Compared with `CCc1nc(N)nc(N)c1-c1cn(CCOc2ccc(C(=O)OC)cc2)nn1` (as salt: hydrochloride) [Compound 10], `CCc1nc(N)nc(N)c1-c1cn(CCCOc2ccc(C(=O)OC)cc2)nn1` (as salt: hydrochloride) [Compound 12] is lower in melting point: 225 to 226 °C for the first, 211 to 212 °C for the second.

Compared with `CCc1nc(N)nc(N)c1OCc1csc(-c2cccc(OCC(=O)OCc3ccccc3)c2)n1` (as salt: hydrochloride) (hydrate or solvate) [Compound 63], `CCc1nc(N)nc(N)c1OCc1csc(-c2ccc(OCC(=O)OCc3ccccc3)cc2)n1` (as salt: hydrochloride) (hydrate or solvate) [Compound 72] is higher in melting point: 175 to 177 °C for the first, 178 to 180 °C for the second.

First: CCc1nc(N)nc(N)c1-c1cn(CCc2ccccc2)nn1 (as salt: hydrochloride) [Compound 7]
Second: CCc1nc(N)nc(N)c1-c1cn(CCCc2ccccc2)nn1 (as salt: hydrochloride) [Compound 8]
The melting point of the first is lower: 203 to 204.5 °C for the first, 233 to 235 °C for the second.

First: CCc1nc(N)nc(N)c1OCc1coc(-c2ccc(OCC(=O)OCc3ccccc3)cc2)n1 (as salt: hydrochloride) (hydrate or solvate) [Compound 56]
Second: CCc1nc(N)nc(N)c1OCc1coc(-c2ccc(OCC(=O)O)cc2)n1 (as salt: hydrochloride) (hydrate or solvate) [Compound 57]
The melting point of the first is lower: 191.5 to 192.5 °C for the first, 195.5 to 197.5 °C for the second.

Compared with `CCc1nc(N)nc(N)c1OCc1cc(-c2ccc(OC)cc2)no1` (as salt: hydrochloride) [Compound 42], `CCc1nc(N)nc(N)c1OCc1cc(-c2ccc(Br)cc2)no1` (as salt: hydrochloride) [Compound 36] is higher in melting point: 214 to 216 °C for the first, 238 to 239.5 °C for the second.

First: CCc1nc(N)nc(N)c1OCc1cc(-c2ccc(C(F)(F)F)cc2)no1 (as salt: hydrochloride) [Compound 41]
Second: CCc1nc(N)nc(N)c1OCc1cc(-c2cccc(C(F)(F)F)c2)no1 (as salt: hydrochloride) [Compound 37]
The melting point of the first is lower: 173 to 174.5 °C for the first, 224 to 225.5 °C for the second.

Compared with `CCc1nc(N)nc(N)c1OCc1csc(-c2cccc(C)c2)n1` (as salt: hydrochloride) [Compound 61], `CCc1nc(N)nc(N)c1OCc1csc(-c2ccc(C)cc2)n1` (as salt: hydrochloride) [Compound 67] is higher in melting point: 232 to 233 °C for the first, 235 to 236 °C for the second.

First: CCc1nc(N)nc(N)c1OCCCc1cc(-c2cccc(C(=O)OC)c2)no1 (as salt: hydrochloride) [Compound 48]
Second: CCc1nc(N)nc(N)c1OCc1cc(-c2cccc(C(=O)O)c2)no1 (as salt: hydrochloride) [Compound 40]
The melting point of the first is lower: 188 to 189.5 °C for the first, 192 to 194 °C for the second.

Compared with `CCc1nc(N)nc(N)c1OCc1csc(-c2ccccc2)n1` (as salt: hydrochloride) [Compound 60], `CCc1nc(N)nc(N)c1OCc1csc(-c2ccc(Br)cc2)n1` (as salt: hydrochloride) [Compound 71] is higher in melting point: 220 to 222 °C for the first, 236 to 238 °C for the second.

Compared with `CCc1nc(N)nc(N)c1OCc1coc(-c2ccc(Cl)cc2)n1` (as salt: hydrochloride) [Compound 55], `CCc1nc(N)nc(N)c1OCc1csc(-c2ccc(Cl)cc2)n1` (as salt: hydrochloride) [Compound 70] is lower in melting point: 239 to 240 °C for the first, 230 to 232 °C for the second.

Compared with `CCc1nc(N)nc(N)c1OCc1cc(-c2cccc(OC)c2)no1` (as salt: hydrochloride) [Compound 38], `CCc1nc(N)nc(N)c1OCc1cc(-c2ccc(F)cc2)no1` (as salt: hydrochloride) [Compound 34] is higher in melting point: 211.5 to 212.5 °C for the first, 231 to 232 °C for the second.

Compared with `CCc1nc(N)nc(N)c1OCc1cn(-c2cccc(C(=O)OC)c2)nn1` (as salt: hydrochloride) [Compound 15], `CCc1nc(N)nc(N)c1OCc1cn(-c2ccc(C(=O)OC)cc2)nn1` (as salt: hydrochloride) [Compound 18] is lower in melting point: 211 to 212 °C for the first, 197.5 to 199 °C for the second.

First: CCc1nc(N)nc(N)c1OCc1coc(-c2ccccc2)n1 (as salt: hydrochloride) [Compound 50]
Second: CCc1nc(N)nc(N)c1OCCc1coc(-c2ccccc2)n1 (as salt: hydrochloride) [Compound 58]
The melting point of the first is lower: 231 to 232 °C for the first, 254.5 to 255.5 °C for the second.

Compared with `CCc1nc(N)nc(N)c1OCc1cn(-c2ccccc2)nn1` (as salt: hydrochloride) [Compound 13], `CCc1nc(N)nc(N)c1OCc1cn(-c2ccc(C(=O)O)cc2)nn1` (as salt: hydrochloride) [Compound 19] is higher in melting point: 212.5 to 213.5 °C for the first, 270.8 to 272 °C for the second.

Compared with `CCc1nc(N)nc(N)c1-c1cn(CCCOc2ccc(Cl)cc2)nn1` (as salt: hydrochloride) [Compound 11], `CCc1nc(N)nc(N)c1-c1cn(Cc2ccccc2)nn1` (as salt: hydrochloride) [Compound 3] is higher in melting point: 222.5 to 223.5 °C for the first, 255.5 to 256.5 °C for the second.

Compared with `CCc1nc(N)nc(N)c1OCc1cn(Cc2ccc(O)cc2)nn1` (as salt: hydrochloride) [Compound 28], `CCc1nc(N)nc(N)c1OCCc1cn(Cc2ccc(O)cc2)nn1` (as salt: hydrochloride) [Compound 30] is lower in melting point: 224.2 to 225.2 °C for the first, 213 to 215 °C for the second.

First: CCc1nc(N)nc(N)c1OCCc1cn(-c2ccc(C(=O)O)cc2)nn1 (as salt: hydrochloride) [Compound 22]
Second: CCc1nc(N)nc(N)c1OCCc1cn(-c2ccc(C(=O)OC)cc2)nn1 (as salt: hydrochloride) [Compound 21]
The melting point of the first is higher: 270 to 271 °C for the first, 190 to 192 °C for the second.

First: CCc1nc(N)nc(N)c1OCCCc1cn(-c2cccc(C(=O)O)c2)nn1 (as salt: hydrochloride) [Compound 23]
Second: CCc1nc(N)nc(N)c1OCCc1cn(-c2cccc(C(=O)O)c2)nn1 (as salt: hydrochloride) [Compound 20]
The melting point of the first is lower: 230.5 to 231.5 °C for the first, 246 to 247 °C for the second.

Compared with `CCc1nc(N)nc(N)c1OCc1cn(Cc2cc(F)c(O)c(F)c2)nn1` (as salt: hydrochloride) [Compound 27], `CCc1nc(N)nc(N)c1OCc1cn(Cc2cccc(C(=O)O)c2)nn1` (as salt: hydrochloride) [Compound 26] is lower in melting point: 224.7 to 226 °C for the first, 170 to 171 °C for the second.

Compared with `CCc1nc(N)nc(N)c1OCc1csc(-c2ccc(OC)cc2)n1` (as salt: hydrochloride) [Compound 68], `CCc1nc(N)nc(N)c1OCc1csc(-c2ccc(F)cc2)n1` (as salt: hydrochloride) [Compound 69] is lower in melting point: 228 to 229 °C for the first, 226 to 227 °C for the second.

First: CCc1nc(N)nc(N)c1-c1cn(Cc2ccc(C(=O)OC)cc2)nn1 (as salt: hydrochloride) [Compound 4]
Second: CCc1nc(N)nc(N)c1OCCCc1cn(-c2ccc(C(=O)OC)cc2)nn1 (as salt: hydrochloride) [Compound 24]
The melting point of the first is higher: 222 to 223 °C for the first, 208 to 209.5 °C for the second.

Compared with `CCc1nc(N)nc(N)c1OCc1cc(-c2ccc(C(=O)O)cc2)no1` (as salt: hydrochloride) [Compound 44], `CCc1nc(N)nc(N)c1OCc1cc(-c2ccc(Cl)cc2)no1` (as salt: hydrochloride) [Compound 35] is lower in melting point: 242 to 244 °C for the first, 230 to 231.5 °C for the second.

First: CCc1nc(N)nc(N)c1-c1cn(-c2ccccc2)nn1 (as salt: hydrochloride) [Compound 1]
Second: CCc1nc(N)nc(N)c1OCc1cn(-c2cccc([N+](=O)[O-])c2)nn1 (as salt: hydrochloride) [Compound 14]
The melting point of the first is higher: 273.2 to 274.5 °C for the first, 236 to 237 °C for the second.

First: CCc1nc(N)nc(N)c1OCc1csc(-c2ccc(C(=O)O)cc2)n1 (as salt: hydrochloride) [Compound 75]
Second: CCc1nc(N)nc(N)c1OCc1csc(-c2ccc(OCC(=O)O)cc2)n1 (as salt: hydrochloride) (hydrate or solvate) [Compound 73]
The melting point of the first is higher: 213 to 214 °C for the first, 203.5 to 205.5 °C for the second.

First: CCc1nc(N)nc(N)c1OCCCc1cc(-c2ccc(Cl)cc2)no1 (as salt: hydrochloride) [Compound 45]
Second: CCc1nc(N)nc(N)c1OCc1cc(-c2ccc([N+](=O)[O-])cc2)no1 (as salt: hydrochloride) [Compound 43]
The melting point of the first is higher: 231.5 to 232.5 °C for the first, 216 to 218 °C for the second.

Compared with `CCc1nc(N)nc(N)c1OCCc1coc(-c2ccc(C(=O)O)cc2)n1` (as salt: hydrochloride) [Compound 59], `CCc1nc(N)nc(N)c1OCc1coc(-c2cccc(OCC(=O)O)c2)n1` (as salt: hydrochloride) (hydrate or solvate) [Compound 54] is lower in melting point: 330 to 332 °C for the first, 203 to 204 °C for the second.

First: CCc1nc(N)nc(N)c1OCc1csc(-c2cccc(OCC(=O)O)c2)n1 (as salt: hydrochloride) (hydrate or solvate) [Compound 64]
Second: CCc1nc(N)nc(N)c1OCc1csc(-c2cccc(C(=O)OC)c2)n1 (as salt: hydrochloride) [Compound 65]
The melting point of the first is lower: 191 to 193 °C for the first, 224.5 to 226.5 °C for the second.

First: CCc1nc(N)nc(N)c1-c1cn(Cc2ccc(OC(=O)N(c3ccccc3)c3ccccc3)cc2)nn1 (as salt: hydrochloride) [Compound 6]
Second: CCc1nc(N)nc(N)c1OCc1cn(-c2ccc([N+](=O)[O-])cc2)nn1 (as salt: hydrochloride) [Compound 17]
The melting point of the first is lower: 138 to 139 °C for the first, 209 to 210.5 °C for the second.

`CCc1nc(N)nc(N)c1OCc1coc(-c2cccc([N+](=O)[O-])c2)n1` (as salt: hydrochloride) [Compound 52] showed a melting point of 221.5 to 222.5 °C.

test system: P. falciparum TM4/8.2 (wild type); assay: microbe, parasite or virus in culture; format: cell-based, Plasmodium falciparum; conditions: Plasmodium falciparum; in vitro, wild-type strain TM4/8.2; read-out: IC50 P. falciparum TM4/8.2 (WT)
From the text: (§1) In Vitro Antimalarial Activites Against P. falciparum and Cytotoxicity Towards Mammalian Cells (Vero Cells)

`CCc1nc(N)nc(N)c1-c1ccc(Cl)cc1` [Pyrimethamine, pyrimethamine, reference compound] showed an IC50 of 0.058 ± 0.03 µM.

test system: P. falciparum V1/S (N51I + C59R + S108 + I164L); assay: microbe, parasite or virus in culture; format: cell-based, Plasmodium falciparum; conditions: Plasmodium falciparum; in vitro, quadruple mutant strain V1/S; read-out: IC50 P. falciparum V1/S
From the text: as §1

`CCc1nc(N)nc(N)c1-c1ccc(Cl)cc1` [Pyrimethamine, pyrimethamine, reference compound] showed an IC50 greater than 100 µM.

test system: not listed separately; assay: in vitro; conditions: African green monkey
From the text: as §1

`CCc1nc(N)nc(N)c1-c1ccc(Cl)cc1` [Pyrimethamine, pyrimethamine, reference compound] showed an IC50 greater than 10 µM.
